In publication PMC12711630 (Cell Reports. Physical Science, 2025):
Like-named read-outs stand apart in the source and are kept apart here. Marks after values point to notes of the source that are not given here.

Assays:
[1] = biological target: T1, (α4)3(β2)2 (LS isoform) α4β2 nAChR WT (Homo sapiens, UniProt P17787+P43681); experiment: Two-electrode voltage clamp, Xenopus oocytes expressing LS α4β2 nAChR, wild type; assay type: cell-based
T1 construct: expressed in transfected cells; host or cells: Xenopus laevis oocytes, nuclear injection of cDNA in plasmid pCI (10 α4 : 1 β2 for LS, 1 α4 : 10 β2 for HS)

[2] = biological target: T2, (α4)2(β2)3 (HS isoform) α4β2 nAChR WT (Homo sapiens, UniProt P17787+P43681); experiment: Two-electrode voltage clamp, Xenopus oocytes expressing HS α4β2 nAChR, wild type; assay type: cell-based
T2 construct: expressed in transfected cells; host or cells: Xenopus laevis oocytes, nuclear injection of cDNA in plasmid pCI (10 α4 : 1 β2 for LS, 1 α4 : 10 β2 for HS)

[3] = biological target: T3, 5-HT3A receptor (Homo sapiens, UniProt P46098); experiment: Inhibition of [3H]GR65630 binding, transfected HEK293 cell membranes; details: for IC50: n=3
T3 sequence (P46098 24-478): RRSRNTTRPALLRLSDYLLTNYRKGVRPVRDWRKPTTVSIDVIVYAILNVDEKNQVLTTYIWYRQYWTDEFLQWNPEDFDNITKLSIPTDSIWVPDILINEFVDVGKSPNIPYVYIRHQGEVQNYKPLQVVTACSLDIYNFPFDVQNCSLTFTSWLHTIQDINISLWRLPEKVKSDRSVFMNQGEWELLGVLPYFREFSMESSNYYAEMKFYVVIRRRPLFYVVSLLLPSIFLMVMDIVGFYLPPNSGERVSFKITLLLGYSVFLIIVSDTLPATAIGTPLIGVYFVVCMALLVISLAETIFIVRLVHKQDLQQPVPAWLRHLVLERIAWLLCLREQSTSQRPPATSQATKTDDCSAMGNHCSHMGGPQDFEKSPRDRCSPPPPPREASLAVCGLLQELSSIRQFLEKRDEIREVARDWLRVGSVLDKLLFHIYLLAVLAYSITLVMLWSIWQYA

[4] = biological target: T3, 5-HT3A receptor; experiment: FlexStation fluorescent membrane-potential dye assay, transfected HEK 293 cells; assay type: cell-based; details: for EC50: n=4
[5] = biological target: T4, (α4)2(β2)3 (HS isoform) α4β2 nAChR (Homo sapiens, UniProt P17787+P43681); experiment: Inhibition of ACh EC80 current responses, Xenopus oocytes, HS isoform; assay type: cell-based; details: co-applied with ACh EC80 30 µM
T4 construct: expressed in transfected cells; host or cells: Xenopus laevis oocytes, nuclear injection of cDNA in plasmid pCI (10 α4 : 1 β2 for LS, 1 α4 : 10 β2 for HS)

[6] = physchem
[7] = biological target: T5, (α4)3(β2)2 (LS isoform) α4β2 nAChR (Homo sapiens, UniProt P17787+P43681); experiment: Inhibition of ACh EC80 current responses, Xenopus oocytes, LS isoform; assay type: cell-based; details: co-applied with ACh EC80 300 µM
T5 construct: expressed in transfected cells; host or cells: Xenopus laevis oocytes, nuclear injection of cDNA in plasmid pCI (10 α4 : 1 β2 for LS, 1 α4 : 10 β2 for HS)

[8] = cited from earlier work
[9] = biological target: T6, (α4)3(β2)2 (LS isoform) α4β2 nAChR α4T139V (Homo sapiens, UniProt P17787+P43681, T139V); experiment: Two-electrode voltage clamp, Xenopus oocytes, LS α4β2 nAChR α4T139V; assay type: cell-based
T6 construct: expressed in transfected cells; host or cells: Xenopus laevis oocytes, nuclear injection of cDNA in plasmid pCI

[10] = Spectrophotometric titration pKa determination
[11] = biological target: α4β2; details: read-out: affinity at α4β2; cited from earlier work

T1 sequence (P43681 27-627): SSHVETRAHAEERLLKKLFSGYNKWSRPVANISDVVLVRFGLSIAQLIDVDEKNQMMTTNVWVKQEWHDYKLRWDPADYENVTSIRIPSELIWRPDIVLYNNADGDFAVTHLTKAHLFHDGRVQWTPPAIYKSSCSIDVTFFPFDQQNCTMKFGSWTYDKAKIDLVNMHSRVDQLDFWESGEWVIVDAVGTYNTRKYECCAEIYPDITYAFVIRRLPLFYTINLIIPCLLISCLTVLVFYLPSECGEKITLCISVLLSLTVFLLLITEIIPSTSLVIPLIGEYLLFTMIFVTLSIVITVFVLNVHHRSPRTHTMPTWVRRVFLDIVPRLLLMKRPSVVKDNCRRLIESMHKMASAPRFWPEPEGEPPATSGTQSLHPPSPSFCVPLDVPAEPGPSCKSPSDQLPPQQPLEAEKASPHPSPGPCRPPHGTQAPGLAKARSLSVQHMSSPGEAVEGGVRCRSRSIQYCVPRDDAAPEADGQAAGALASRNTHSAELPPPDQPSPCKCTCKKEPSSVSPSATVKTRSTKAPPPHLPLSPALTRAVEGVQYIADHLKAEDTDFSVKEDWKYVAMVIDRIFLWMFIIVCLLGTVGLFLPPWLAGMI
T1 sequence (P17787 26-502): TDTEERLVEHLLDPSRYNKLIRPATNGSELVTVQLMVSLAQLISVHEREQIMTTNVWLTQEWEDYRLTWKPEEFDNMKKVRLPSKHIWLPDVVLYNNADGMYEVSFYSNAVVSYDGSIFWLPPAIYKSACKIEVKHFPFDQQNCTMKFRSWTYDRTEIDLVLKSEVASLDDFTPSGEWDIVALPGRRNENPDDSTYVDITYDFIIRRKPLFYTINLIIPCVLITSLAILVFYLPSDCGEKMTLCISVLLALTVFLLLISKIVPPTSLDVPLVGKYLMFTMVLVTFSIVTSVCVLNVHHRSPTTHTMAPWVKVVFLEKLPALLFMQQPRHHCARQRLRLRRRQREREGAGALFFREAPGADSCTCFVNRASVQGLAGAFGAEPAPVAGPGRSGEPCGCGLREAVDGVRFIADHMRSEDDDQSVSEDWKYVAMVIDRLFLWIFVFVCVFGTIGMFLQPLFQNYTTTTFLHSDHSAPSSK
T2 sequence (P43681 27-627): as the sequence (P43681 27-627) above
T2 sequence (P17787 26-502): as the sequence (P17787 26-502) above
T6 sequence (P43681 27-627 T139V): as the sequence (P43681 27-627) above, with T113V counted along it
T6 sequence (P17787 26-502): as the sequence (P17787 26-502) above
T5 sequence (P43681 27-627): as the sequence (P43681 27-627) above
T5 sequence (P17787 26-502): as the sequence (P17787 26-502) above
T4 sequence (P43681 27-627): as the sequence (P43681 27-627) above
T4 sequence (P17787 26-502): as the sequence (P17787 26-502) above

c1cnc2nc3c(nc2n1)C1CNCC3C1 [N2 varenicline 6]
RE [1]: 0.0032 ± 0.0023 ^a
RE [2]: 0.0010 ± 0.0001 ^a
fold increase of IC50 against [3H]GR65630 compared to varenicline 1 [3]: 250 fold
IC50 ([3]; [3H]GR65630 0.3 nM, read-out: IC50, inhibition of [3H]GR65630 binding): 75.8 µM
functional response at 5-HT3A receptors ([4]; concentrations up to 30 µM): No signiﬁcant responses
IC50 [5]: > 1000 µM
pKa [6]: 7.31 ± 0.05
IC50 [7]: > 1000 µM

c1cnc2cc3c(cc2n1)[C@@H]1CNC[C@H]3C1 [Varenicline 1, varenicline, reference compound]
RE ([1]; Table 3, LS (α4)3(β2)2, relative to maximal ACh response): 0.38 ± 0.025
pKa, literature value ([8]; ref Pfizer[80]): 9.2
pKa, literature value ([8]; ref Rollema et al.[81]): 9.3
pKa, literature value ([8]; ref Unal et al.[82]): 9.22 ± 0.13
RE ([2]; Table 3, HS (α4)2(β2)3, relative to maximal ACh response): 0.14 ± 0.012
IC50 ([3]; mean + SEM, read-out: pIC50, inhibition of [3H]GR65630 binding (converted)): 0.304 µM
EC50 ([4]; EC50, activation of 5-HT3A receptors, membrane-potential sensitive dye): 0.4 µM
EC50 ([4]; pEC50, activation of 5-HT3A receptors, mean + SEM): 0.437 µM
reduction of RE vs WT [9]: 50%
pKa [10]: 8.9 ± 0.1

c1ccc2c(c1)C1CNCC2C1 [benzo variant, 2,3,4,5-tetrahydro-1H-1,5-methanobenzo[d]azepine]
Ki [11]: 0.02 µM
